Test results: patent US8921108B2, “Differentiated human liver cell cultures and their use in bioartificial liver systems” (Academisch Ziekenhuis Bij de Universiteit van Amsterdam, priority 2009, dated 2014)
Several values for one entry are separate records, joined by “and”; a condition that tells them apart may be missing. Equal values may be shown once.

Key:
[1] = tested on: HepaRG cells; assay: ApoA1 production of HepaRG monolayer cultures (ELISA); format: cell-based, human
Experimental: (§1) For testing, the cells are seeded in 6-well and 24-well culture plates (Corning) in HepaRG media with different FBS batches or other differences in medium composition. After a 2 weeks proliferation phase, 2% of DMSO will be added to half of the cultures. After another 2 weeks of culturing, the confluence and morphology of the cultures will be assessed microscopically. Furthermore the +DMSO and −DMSO cell cultures in the 24-well plates will be tested for biochemical activity, i.e. urea production, ammonia elimination and protein content. The cultured cells are washed twice using phosphate buffered saline (PBS, NBPI International) and then incubated with test medium consisting of HepaRG culture medium supplemented with 1.5 mM ^15NH4Cl (Sigma), 2.75 mM D-galactose (Sigma), 2 mM ornithine hydrochloride (Sigma) and 2 mM L-lactate (Sigma). Medium samples are taken after 1 hr from the culture wells, as a reference, and after 24 hours. At the end of the test period the cells are washed three times using PBS and stored at −20° C. for protein determination. From the changes in concentration at t=1 hr and 24 hr of urea and ammonia an activity per hour and per mg protein/well is calculated. Quality of the cell-loaded bioreactors, measured by hepatocyte function at the start of the treatment, will be compared with values of primary hepatocytes that have been tested extensively in vitro in the past.
ApoA1: Human ApoA1 concentrations are determined by ELISA using rabbit anti-human ApoA1 (1:500, Calbiochem, 178422), as first antibody, monoclonal mouse anti human ApoA1 (1:500, Calbiochem, 178472) as second antibody and polyclonal rabbit anti mouse IgG-HRP (1:2000, Dako Po 260) as third antibody.

[2] = tested on: HepaRG cells; assay: Urea production of HepaRG monolayer cultures; format: cell-based, human
Experimental: For testing, the cells are seeded in 6-well and 24-well culture plates (Corning) in HepaRG media with different FBS batches or other differences in medium composition. After a 2 weeks proliferation phase, 2% of DMSO will be added to half of the cultures. After another 2 weeks of culturing, the confluence and morphology of the cultures will be assessed microscopically. Furthermore the +DMSO and −DMSO cell cultures in the 24-well plates will be tested for biochemical activity, i.e. urea production, ammonia elimination and protein content. […] Medium samples are taken after 1 hr from the culture wells, as a reference, and after 24 hours. At the end of the test period the cells are washed three times using PBS and stored at −20° C. for protein determination. From the changes in concentration at t=1 hr and 24 hr of urea and ammonia an activity per hour and per mg protein/well is calculated.
Urea: Urea concentrations of test medium samples are determined using the blood urea nitrogen test of Sigma Chemical Co according to the instructions of the manufacturer.
(§2) The HepaRG cells are cultured as indicated above in 24 well in presence or absence of 1 mM CG during the last 5 days. Next the cells are tested as indicated above in presence or absence of CG during 24 hours. To determine the conversion of ammonia into urea, the ^15N urea enrichment (single and double labeled) is measured in the test samples using mass-spectrometry. Similarly, HepG2 and cBAL111 cells were tested for their response to CG.

[3] = tested on: HepaRG cells; assay: Lactate elimination/consumption of HepaRG monolayer cultures; format: cell-based, human
Experimental: as §1, with “At the end of the test period the cells are washed three times using PBS and stored at −20° C. for protein determination.” left out
Lactate and glucose concentration: Both are analyzed using a P800 analyzer (Roche Diagnostics).

[4] = tested on: HepaRG cells; assay: RT-PCR mRNA levels of hepatic genes in HepaRG monolayer cultures; format: cell-based, human
Experimental: The HepaRG cells cultured in the 6-well plates are lysed and the RNA is isolated using the RNeasy kit (Qiagen). Next, real-time reverse transcriptase-polymerase chain reactions (RT-PCR) are performed to quantify mRNA levels of hepatic genes as well as 18S ribosomal RNA levels by RT-PCR.
First-strand cDNA is generated using a combination of 40 pmol of gene-specific RT-primers (see Table 1) and 134 units of Superscript III (Invitrogen) and 1 μg RNA in a total volume of 25 μl at 50° C. for one hour followed by a 15 min incubation at 70° C. The resulting gene-specific RT reaction mixtures are column purified using Qiaquick PCR Purification Kit (Qiagen).
Real-time PCR is performed using 1 μl of cDNA and LightCycler FastStart DNA Master SYBR® Green 1 reagent (Roche). PCR primers are depicted in the Table 3. The thermal cycling profile of the touchdown PCR is as follows: 94° C. for 10 min, followed by 40 cycles of 94° C. for 1 s, primer annealing at 68° C. for 7 s with a 0.5° C./cycle decrease until 63° C., and extension for 40 s at 72° C. PCR specificity is verified by melting curve analysis and agarose gel electrophoresis. The mRNA quantification is carried out by using the LinRegPCR programme (Ramakers et al.^17). For each sample the mRNA starting level is normalised for the 18S rRNA starting level. To correct for variations between RT-PCR runs, the mRNA starting levels of liver specific genes of NKNT-3 cells are additionally standardized for average mRNA starting levels of two liver samples that are simultaneously subjected to RT-PCR.

[5] = tested on: HepaRG cells; assay: Ammonia elimination of HepaRG monolayer cultures; format: cell-based, human
Experimental: For testing, the cells are seeded in 6-well and 24-well culture plates (Corning) in HepaRG media with different FBS batches or other differences in medium composition. After a 2 weeks proliferation phase, 2% of DMSO will be added to half of the cultures. After another 2 weeks of culturing, the confluence and morphology of the cultures will be assessed microscopically. Furthermore the +DMSO and −DMSO cell cultures in the 24-well plates will be tested for biochemical activity, i.e. urea production, ammonia elimination and protein content. […] From the changes in concentration at t=1 hr and 24 hr of urea and ammonia an activity per hour and per mg protein/well is calculated. Quality of the cell-loaded bioreactors, measured by hepatocyte function at the start of the treatment, will be compared with values of primary hepatocytes that have been tested extensively in vitro in the past.
Ammonia: Ammonia concentrations are determined by an enzymatic kinetic colorimetric assay using glutamate dehydrogenase and NADPH, using the Ammonia (rapid) kit (Megazyme, Ireland) according to the instructions of the manufacturer.

[6] = tested on: HepaRG cells; assay: 15N urea enrichment (conversion of ammonia into urea) in HepaRG monolayer cultures; format: cell-based, human; conditions: HepaRG monolayer +DMSO, no CG
Experimental: as §1
^15N Urea: Single and Double labelled urea is measured in the test medium samples using mass-spectrometry.
as §2

[7] = tested on: HepaRG cells; assay: AST and LDH leakage of HepaRG monolayer cultures; format: cell-based, human; conditions: HepaRG monolayer +DMSO
Experimental: as §1
AST and LDH: Both AST and LDH activities are analyzed spectrophotometrically using a P800 Roche Diagnostics analyzer.

[8] = tested on: HepaRG cells; assay: Galactose elimination of HepaRG monolayer cultures; format: cell-based, human; conditions: HepaRG monolayer +DMSO
Experimental: as §1

[9] = tested on: HepaRG cells; assay: Total protein content of HepaRG monolayer cultures; format: cell-based, human
Experimental: as §1
Total protein: Total protein was quantified by spectrometry using Coomassie blue (Bio-Rad).

[10] = target: T1, Arginase II (Arg II) (Homo sapiens, UniProt P78540); conditions: C3A cells; cited from earlier work
T1 construct: Arginase II (Arg II) mRNA and protein was expressed at high levels in C3A cells; endogenous in cells; host or cells: C3A cells (HepG2 sub-clone)
T1 sequence (P78540 23-354): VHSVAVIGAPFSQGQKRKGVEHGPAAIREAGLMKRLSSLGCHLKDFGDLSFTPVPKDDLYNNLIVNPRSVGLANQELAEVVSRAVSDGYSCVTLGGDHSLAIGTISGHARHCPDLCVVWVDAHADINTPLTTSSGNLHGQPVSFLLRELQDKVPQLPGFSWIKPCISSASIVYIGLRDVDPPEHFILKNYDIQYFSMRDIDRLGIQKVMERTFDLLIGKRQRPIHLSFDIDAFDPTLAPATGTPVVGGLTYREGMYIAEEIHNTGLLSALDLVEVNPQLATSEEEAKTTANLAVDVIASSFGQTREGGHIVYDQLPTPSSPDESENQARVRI

[11] = HepaRG monolayer +DMSO, per well
[12] = HepaRG monolayer, 2% DMSO last 2 weeks, no CG
[13] = HepaRG monolayer, DMSO treatment

With `C[S+](C)[O-]` [DMSO, dimethylsulfoxide] the ApoA1 synthesis ([1]; HepaRG monolayer +DMSO −CG) was 1.2 ± 1.1 ug/h/mg protein, the “ApoA1 production (absolute value)” value [1, 11] was 0.11 ± 0.11 µg/h and the ApoA1 production [1, 12] was 1.06 ± 0.95 μg/h/mg protein. The “Urea production (absolute value)” value [2, 11] was 0.8 ± 0.5 nmol/h, the Urea production [2, 12] was 8.1 ± 6.8 nmol/h/mg protein and 6.0 ± 4.2 nmol/h/mg protein and 7.0 ± 7.0 nmol/h/mg protein and the Lactate consumption ([3]; HepaRG monolayer +DMSO −CG) was “production”. The Lactate elimination [3, 12] was “production”, the “ArgII mRNA level” value ([4]; HepaRG monolayer +DMSO −CG) was 718 ± 463 % of in vivo and the “ALB mRNA level” value [4, 12] was 23 ± 4 % of in vivo and 22.7 ± 4.4 % of in vivo. For the same molecule, the “ARG1 mRNA level” value [4, 12] was 5 ± 4 % of in vivo and 4.6 ± 3.7 % of in vivo, the “CPS mRNA level” value [4, 12] was 1.1 ± 0.4 % of in vivo and the “CYP2B6 mRNA level” value [4, 12] was 61 ± 30 % of in vivo and 60.7 ± 30.0 % of in vivo. The “CYP3A4 mRNA level” value [4, 12] was 69 ± 47 % of in vivo and 68.9 ± 47.2 % of in vivo, the “GS mRNA level” value [4, 12] was 90 ± 29 % of in vivo and 90.1 ± 29.1 % of in vivo and the “HNF4 mRNA level” value [4, 12] was 61 ± 21 % of in vivo and 60.8 ± 21.1 % of in vivo. For the same molecule, the “PXR mRNA level” value [4, 12] was 42 ± 19 % of in vivo and 41.7 ± 19.2 % of in vivo, the “effect on CYP2B6 and 3A4 expression” value [4, 13] was “increased” and the “effect on expression of other hepatic genes tested” value [4, 13] was “either unaffected or decreased”. For the same molecule, the “effect on gene expression of synthetic and metabolic genes, as CPS and albumin and galactose elimination” value ([4]; presence of DMSO) was “inhibited”, the “Ammonia elimination (absolute value)” value [5, 11] was 11.6 ± 4.3 nmol/h and the Ammonia elimination [5, 12] was 107 ± 41 nmol/h/mg protein and 110 ± 49 nmol/h/mg protein. The 15N urea enrichment [6] was 15.5 ± 8.4 % of total urea and 16.0 ± 8.4 % of total urea, the “AST leakage (protein normalized)” value [7] was 4.9 ± 2.4 mU/h/mg protein and the “LDH leakage (protein normalized)” value [7] was 21.2 ± 9.4 mU/h/mg protein. For the same molecule, the “AST leakage (absolute value)” value ([7]; per well) was 0.43 ± 0.08 mU/h, the “LDH leakage (absolute value)” value ([7]; per well) was 1.87 ± 0.43 mU/h and the “Galactose elimination (protein normalized)” value [8] was 58 ± 17 nmol/h/mg protein. The “Galactose elimination (absolute value)” value ([8]; per well) was 7.2 ± 1.8 nmol/h, the total protein/well [9, 12] was 109 ± 21 µg and the “cells killed by DMSO treatment” value ([9]; HepaRG monolayer, deduced from total protein/well content and increased cell leakage) was “more than 50%”. The “effect on cell number” value ([9]; presence of DMSO, deduced from total protein content) was “drastically reduced”.

For `N=C(NO)NCC[C@H](N)C(=O)O` [N^ω-hydroxy-nor-L-arginine], the “effect on Arginase II” value [10] is listed as “inhibited” and the “effect on urea production” value [10] is listed as “prevented”.
